The source of these data is US20230393122A1 (priority 2022, published 2023).

The subject of test [1] is SARS-CoV-2 infected eSTBs. It counts as cell-based, human.
For test [2], the system named is SARS-CoV-2 WT. Put plainly: Viral load reduction assay in naïve-eSTB cells. The class given is cell-based. The note with it: compared with EPSC-eSTBs.
For test [3], the system named is MERS-CoV. It counts as cell-based. To be noted: 48 h.p.i., efficiency comparable to that in Vero E6 cells.
For test [4], the system named is SARS-CoV-2 WT. Put plainly: Viral load reduction assay in EPSC-derived eSTB cells (qRT-PCR of supernatant viral copies). It counts as cell-based. The note with it: for IC50: read-out: IC50 for SARS-CoV-2 in eSTBs. (In qPCR the cycle at which signal appears reflects the starting amount.)
Test [5] relates to SARS-CoV-2. The note with it: cited from earlier work.
Test [6] has as its system SARS-CoV-2. To be noted: Vero E6 cells; read-out: IC50 against SARS-CoV-2 in Vero E6 cells; cited from earlier work.

Like-named read-outs stand apart in the source and are kept apart here.

`CC(C)C[C@H](NC(=O)OCc1ccccc1)C(=O)N[C@@H](C[C@@H]1CCNC1=O)C(O)S(=O)(=O)[O-].[Na+]` (some centres unmarked) [GC376]: in test [1], the “eSTB development and differentiation along PI-TB to PI-STB pseudotime trajectory” value was “partially rescued”. Moreover, the “IC50 against SARS-CoV-2 in naïve-eSTBs” value in test [2] is “similarly low”. Further, the “MERS-CoV replication in eSTBs” value in test [3] is given as “effectively block”. In addition, the “Viral copy in the supernatant, SARS-CoV-2 WT (FIG. 17B)” value in test [4] (EPSC-derived eSTB cells) was “dose-dependent inhibition”. In test [5], the “Survival of mice with a fatal SARS-CoV-2 infection” value is on record as “increases survival”.

Turning to `CCC(CC)COC(=O)[C@H](C)N[P@](=O)(OC[C@H]1O[C@@](C#N)(c2ccc3c(N)ncnn23)[C@H](O)[C@@H]1O)Oc1ccccc1` [remdesivir], in test [4] (Severe acute respiratory syndrome coronavirus 2, 48 h), the half-inhibitory concentration (IC50) was 3.2 ± 0.1 nM.

As to `CC(C)C[C@H](NC(=O)OCc1ccccc1)C(=O)N[C@@H](CC1CCNC1=O)C(O)S(=O)(=O)O` (some centres unmarked) [GC376], the IC50 was 31.2 ± 5.6 nM in test [4] and 700 nM in test [6].

The IC50 is the concentration at which inhibition is half-maximal.
